Measured values as given in PubChem BioAssay (NCI).
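Compound exposure: 48 hours, 5 concentrations, 96-well plates. GI50: concentration for 50% inhibition of growth. TGI: total growth inhibition.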

Assays:
Assay in all cases: inhibition of tumour cell growth, NCI panel, 48 h
CAKI-1 renal = system: CAKI-1 renal
KM12 colon = system: KM12 colon
M14 melanoma = system: M14 melanoma
MALME-3M melanoma = system: MALME-3M melanoma
RXF 393 renal = system: RXF 393 renal
SK-MEL-28 melanoma = system: SK-MEL-28 melanoma
SK-MEL-5 melanoma = system: SK-MEL-5 melanoma
SNB-75 CNS = system: SNB-75 CNS
SR leukemia = system: SR leukemia
UO-31 renal = system: UO-31 renal

Structure (SMILES) | TGI (CAKI-1 renal) [µM] | TGI (KM12 colon) [µM] | TGI (M14 melanoma) [µM] | TGI (MALME-3M melanoma) [µM] | TGI (RXF 393 renal) [µM] | TGI (SK-MEL-28 melanoma) [µM] | TGI (SK-MEL-5 melanoma) [µM] | TGI (SNB-75 CNS) [µM] | TGI (SR leukemia) [µM] | TGI (UO-31 renal) [µM] | GI50 (CAKI-1 renal) [µM] | GI50 (KM12 colon) [µM] | GI50 (M14 melanoma) [µM] | GI50 (MALME-3M melanoma) [µM] | GI50 (RXF 393 renal) [µM] | GI50 (SK-MEL-28 melanoma) [µM] | GI50 (SK-MEL-5 melanoma) [µM] | GI50 (SNB-75 CNS) [µM] | GI50 (SR leukemia) [nM] | GI50 (UO-31 renal) [nM]
CCN(CC)c1ccc(N=Nc2ccc([N+](=O)[O-])cc2OC(=O)/C=C/c2ccccc2)c(OC(=O)/C=C/c2ccccc2)c1 | > 100 | > 35.8 | > 100 | > 100 | > 100 | > 100 | > 100 | > 100 | > 100 | > 100 | – | – | – | – | – | – | – | – | – | –
Cc1ccc(/C=C2\CN(C(=O)C(Cl)Cl)C/C(=C\c3ccc(C)cc3)C2=O)cc1 | 1.01 | 0.48 | 0.784 | 2.04 | 0.507 | 1.19 | 1.53 | 2.9 | > 100 | 0.308 | 0.273 | 0.193 | 0.261 | 0.35 | 0.216 | 0.319 | 0.445 | 0.573 | 110 | 158
COc1ccc2c(C3(c4cn(C)c5cc(OC)ccc45)C(=O)Nc4ccc(Cl)cc43)cn(C)c2c1 | > 100 | 21.1 | > 100 | 57.6 | 7.87 | > 100 | 20.8 | > 100 | 6.83 | > 100 | 2.04 | 3.82 | 4.19 | 3.62 | 2.5 | 4.71 | 4.26 | 2.1 | 2640 | 1480
CC1(C)O[C@@H](CCl)C[C@H](C#N)O1 | > 100 | > 100 | > 100 | > 100 | > 100 | > 100 | > 100 | > 100 | > 100 | > 100 | – | – | – | – | – | – | – | – | – | –
Cc1cccc(C(C)C)c1N1C(=O)C(=O)C(c2nc3ccccc3o2)C(=O)C1=O | > 100 | > 100 | > 100 | > 100 | > 100 | > 100 | > 100 | > 100 | > 100 | > 100 | – | – | – | – | – | – | – | – | – | –
N[C@@H]1C(=O)N2C(C(=O)OC(c3ccccc3)c3ccccc3)=C(CCl)CS[C@H]12 | > 100 | > 100 | > 96.2 | > 100 | 63.7 | 53.8 | > 100 | > 100 | 33.8 | > 100 | > 100 | 38.1 | 34.8 | > 74.5 | 26.4 | 22.4 | 40.8 | 47.7 | 2120 | 47300
O=C(CN1CCN(c2cc3c(cc2F)c(=O)c(C(=O)O)cn3C2CC2)CC1)Nc1nc(-c2ccc(Cl)cc2)cs1 | > 100 | > 100 | 28.6 | 11.1 | > 100 | 45.8 | 8.05 | > 100 | 53.1 | > 100 | 3.57 | 3.69 | 4.54 | 3.19 | 4.72 | 3.02 | 2.76 | 3.71 | 3580 | 2960
O=C(O)c1cn(C2CC2)c2cc(N3CCN(C(=O)Nc4nc(-c5ccccc5)cs4)CC3)c(F)cc2c1=O | > 100 | 23.7 | > 100 | 6.52 | 26.3 | > 100 | 2.87 | 19.4 | 73.8 | > 100 | 3.59 | 0.485 | 2.06 | 1.53 | 1.53 | 0.705 | 0.824 | 1.22 | 350 | 876
CC1=CC(=O)C(C(C)C)=CC1=Nc1cc(Br)c(O)c(Br)c1 | 8.02 | 7.01 | 7.52 | 33.4 | 15.3 | 22.4 | 10.7 | 21.6 | 15.8 | 33.1 | 2.46 | 2.33 | 2.52 | 14.1 | 3.9 | 6.82 | 3.15 | 4.22 | 3450 | 8220
CCOC(=O)c1c(C)n(Cc2ccccc2)c2c1cc(O)c1[nH]c(Cc3ccccc3)nc12 | 21.8 | > 43.7 | > 100 | 58 | 14.8 | > 100 | 39.1 | 42.3 | 25.3 | > 51.4 | 7.77 | 4.36 | > 50.7 | 9.93 | 3.4 | 24.3 | 9.89 | 8.04 | 3230 | > 32900
O=[N+]([O-])c1ccc(Cl)c(C2CC(c3cccc4ccccc34)=Nc3ccccc3S2)c1 (stereo not given) | > 100 | > 100 | 63.4 | > 100 | 21.7 | > 84.2 | > 31.6 | 60.5 | 68.9 | > 66.8 | – | – | – | – | – | – | – | – | – | –
NC(=O)c1c([N+](=O)[O-])cc(C(F)(F)F)cc1[N+](=O)[O-] | > 100 | > 100 | > 100 | 52.1 | > 100 | > 100 | > 100 | > 100 | > 100 | > 100 | – | – | – | – | – | – | – | – | – | –
S=c1[nH]nc(Cc2ccccc2)c(=S)[nH]1 | > 100 | > 100 | > 100 | > 100 | > 100 | > 100 | > 82.2 | 89.1 | > 100 | > 100 | – | – | – | – | – | – | – | – | – | –
CCOc1cc(Br)c(C(C)NC(=O)c2cccc(OC)c2)cc1OCC (stereo not given) | > 100 | > 100 | > 100 | > 89.3 | > 100 | > 100 | 34.9 | 51.7 | > 100 | > 100 | 13.3 | 7.32 | 4.38 | 9.9 | 12.6 | 12 | 8.06 | 6.04 | 3260 | 12100
FC(F)(F)c1ccc(-c2cnc(-n3cc(COCCN4CCCCC4)nn3)nc2NC2CCCCCC2)cc1 | 7.33 | 8.08 | 9.01 | 8.47 | 5.67 | 6.99 | 6.74 | 6.4 | 7.73 | 5.97 | 3.51 | 4.27 | 4.34 | 4.24 | 2.51 | 3.6 | 3.46 | 2.72 | 2610 | 2630
